One block for each compound: values may come before it.
How the values were obtained:
[1] = Dimerization of linker element precursors in aqueous solution by MS and MS/MS; assay type: physicochemical
Protocol: The ability of precursors to linker elements to form dimers in aqueous solutions was determined by mass spectrometry (MS) and mass spectrometry/mass spectrometry (MS/MS). Linker elements that form dimers (or multimers) only as a result of the ionization during mass spectrometry can be distinguished from those that truly form dimers in aqueous solution by determination of the fragmentation during mass spectrometry/mass spectrometry.

CDK2 = CDK2 (Homo sapiens, UniProt P24941); conditions: read-out: DISSOCIATION CONSTANT (Kd); cited from earlier work
β CATENIN = biological target: T1, β CATENIN (Homo sapiens, UniProt P35222); conditions: read-out: DISSOCIATION CONSTANT (Kd); cited from earlier work
T1 sequence (P35222 1-781): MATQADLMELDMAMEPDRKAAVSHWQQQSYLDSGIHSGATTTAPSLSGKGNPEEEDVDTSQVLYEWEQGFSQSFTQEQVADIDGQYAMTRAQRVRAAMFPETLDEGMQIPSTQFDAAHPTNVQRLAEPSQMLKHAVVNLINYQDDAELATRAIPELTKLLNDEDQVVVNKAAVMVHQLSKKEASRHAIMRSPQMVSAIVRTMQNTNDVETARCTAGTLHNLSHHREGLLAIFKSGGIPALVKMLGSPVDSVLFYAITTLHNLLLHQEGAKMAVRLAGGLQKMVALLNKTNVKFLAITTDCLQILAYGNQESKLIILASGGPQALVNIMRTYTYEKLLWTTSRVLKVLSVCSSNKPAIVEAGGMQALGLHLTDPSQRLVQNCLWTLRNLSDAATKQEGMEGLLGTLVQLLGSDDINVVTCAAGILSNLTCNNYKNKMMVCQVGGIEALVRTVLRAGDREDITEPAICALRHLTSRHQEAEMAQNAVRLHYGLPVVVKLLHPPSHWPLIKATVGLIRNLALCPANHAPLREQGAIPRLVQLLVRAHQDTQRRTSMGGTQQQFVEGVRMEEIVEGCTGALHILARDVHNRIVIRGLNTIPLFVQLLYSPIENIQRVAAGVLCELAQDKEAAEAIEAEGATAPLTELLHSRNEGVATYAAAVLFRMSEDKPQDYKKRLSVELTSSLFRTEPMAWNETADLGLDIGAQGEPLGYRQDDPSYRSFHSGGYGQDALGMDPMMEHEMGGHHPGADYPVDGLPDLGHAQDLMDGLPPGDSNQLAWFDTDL

CaMKII = conditions: read-out: DISSOCIATION CONSTANT (Kd); cited from earlier work
MEK1 = MEK1 (Homo sapiens, UniProt Q02750); conditions: read-out: DISSOCIATION CONSTANT (Kd); cited from earlier work
MEK2 = MEK2 (Homo sapiens, UniProt P36507); conditions: read-out: DISSOCIATION CONSTANT (Kd); cited from earlier work
ERK = conditions: read-out: DISSOCIATION CONSTANT (Kd); cited from earlier work
Bcl-xL = Bcl-xL (Homo sapiens, UniProt Q07817); conditions: read-out: DISSOCIATION CONSTANT (Kd); cited from earlier work
Bcl-xL, sequence (Q07817 whole entry, species assumed): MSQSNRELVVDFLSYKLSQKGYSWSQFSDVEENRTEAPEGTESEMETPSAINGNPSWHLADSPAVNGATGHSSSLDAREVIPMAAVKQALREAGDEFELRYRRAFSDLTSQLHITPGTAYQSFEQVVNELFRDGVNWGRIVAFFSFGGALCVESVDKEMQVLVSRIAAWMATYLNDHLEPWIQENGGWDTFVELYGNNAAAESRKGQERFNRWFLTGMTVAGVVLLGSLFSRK

[2] = self-dimerization, MS and MS/MS
[3] = piperidin-2-ylmethanol with cyclohexylboronic acid

- ability to form dimers in aqueous solution [1, 2]: exists mostly as the monomer
Compound: O=C(CO)CO [1,3-dihydroxyacetone]

- ability to form dimers in aqueous solution [1, 2]: forms a dimer
Compound: O=C1CCCCC1O (stereo not shown) [2-hydroxycyclohexanone]

- ability to form dimers in aqueous solution ([1]; with zinc acetate, 2 molecules co-ordinating one Zn cation, MS/MS): form a dimer
Compound: Cc1occc(=O)c1O [3-hydroxy-2-methyl-4H-pyran-4-one]

Compound: Nc1ncnc2c1ncn2[C@@H]1O[C@H](COP(=O)(O)OP(=O)(O)O)[C@@H](O)[C@H]1O [ADP]
- Kd (CDK2): 2.7 µM

Compound: Nc1ncnc2c1ncn2[C@@H]1O[C@H](COP(=O)(O)OP(=O)(O)OP(=O)(O)O)[C@@H](O)[C@H]1O [ATP]
- Kd (CDK2): 0.227 µM

- ability to form dimers in aqueous solution [1, 3]: form a dimer
Compound: OB(O)C1CCCCC1 [cyclohexylboronic acid]

- ability to form dimers in aqueous solution [1, 3]: form a dimer
Compound: OCC1CCCCN1 (stereo not shown) [piperidin-2-ylmethanol]

Compound: APC: binding partner of β CATENIN
- Kd (β CATENIN): 310 µM

Compound: Calmodulin
- Kd (CaMKII): 0.03 µM

Compound: ERK1: binding partner of MEK1
- Kd (MEK1): 29 µM

Compound: ERK2: binding partner of MEK2
- Kd (MEK2): 9 µM

Compound: MEK1: binding partner of ERK
- Kd (ERK): 0.61 µM

Compound: cytochrome c: binding partner of Bcl-xL
- Kd (Bcl-xL): 0.12 µM
